Test results taken from patent US20210401807A1, “NEW COMPOSITION COMPRISING AMORPHOUS NANOPOROUS SILICA PARTICLES” (VICORE PHARMA AB, priority 2018, published 2021).
Where a name gives a salt, the structure may show the parent alone.

Assay: Dissolution kinetics in simulated lung fluid (SLF), USP 2 dissolution apparatus
Type: physicochemical
Settings: SLF pH 7.4, 37° C.
Protocol: The dissolution kinetics of the C21-loaded silica described in Example 5 were characterized in SLF (pH 7.4; Gamble's solution: made up with the salts NaCl, NaHCO3, KCl, MgCl2, CaCl2, Na2SO4, sodium citrate dihydrate, sodium acetate, NaH2PO4 (all from Sigma-Aldrich)) at 37° C. (Reference: Simulated Biological Fluids with Possible Application in Dissolution Testing, Marques et al,. Dissolution technologies August 2011, p15-28) using a USP 2 dissolution apparatus with stirring speed 75 rpm. Free, unloaded C21-sodium salt was used as control. Concentration of drug at set times after release was measured by a UV/vis spectrometer (Cecil 3021) at 267 nm.
The dose of C21 was calculated as 25 mg of C21 in 500 mL of SLF. […] The loaded C21 is fully released and dissolved from the silica particles in around 10 minutes.

## CCCCOC(=O)NS(=O)(=O)c1sc(CC(C)C)cc1-c1ccc(Cn2ccnc2)cc1 [C21 sodium salt, N-butyloxycarbonyl-3-(4-imidazol-1-ylmethylphenyl)-5-iso-butylthio-phene-2-sulfonamide]
  solubility in SLF conditions: readily soluble
75 rpm, 25 mg of C21 in 500 mL
  released in the first 2 minutes: 96%
